Experimental data: EP3079693B1 (priority 2013, dated 2015)

Columns and labels:
influenza A = format: cell-based
[1] = tested on: constitutive gene expression; assay: Counter screen: separate reporter system with cell death-activated reporter construct (constitutive gene expression)
[2] = tested on: primary renal proximal tubule epithelial cells (or RPTEC)
[3] = tested on: influenza A/WS/1933 (H1N1); format: cell-based
[4] = tested on: liver-derived HepG2 cells
[5] = tested on: influenza A/Puerto Rico/8/34 (H1N1) virus; format: cell-based
influenza B = assay: Inhibition of influenza B (method not described)
[6] = tested on: H3N2 serotype A/Aichi/2/68; format: cell-based, influenza A
[7] = target: T1, influenza A RNA-dependent RNA polymerase (Influenza A virus, UniProt P03428+P03431+P03433); assay: cell-based
[8] = tested on: influenza A/Puerto Rico/8/34; assay: In vivo survival study after live infection; design: species or system Balb/C mice; conditions: 3 doses, 2xLD50 intranasal challenge, survival = 70% or more of starting weight
Protocol: In Vivo Survival Studies: Groups of 5 Balb/C mice ([…]) were weighed prior to the start of study and injected intravenously at the base of the tail with formulations containing A0435 at doses of 3.17, 1, or 0 mg/kg in phosphate buffered saline containing 3% w/v mouse serum albumin. Four hours later, these mice were challenged intranasally with 2xLD50 of influenza A/Puerto Rico/8/34 under anesthesia. Identical doses of A0435 were administered 24 and 48 hours after the initial dose administration and animal weights were monitored daily. Surviving animals were defined as those who maintained 70% or more of their starting weight.

[9] = target: T1, influenza A RNA-dependent RNA polymerase

Compound: CCc1c(C)nc2cc(-c3ccc(OC)c(OC)c3)nn2c1NCCc1ccccn1 [A0435, 2-(3,4-dimethoxyphenyl)-6-ethyl-5-methyl-N-[2(pyridin-2-yl)ethyl]pyrazolo[1,5-a]pyrimidin-7-amine]
- cytopathic effects characteristic of influenza A infection (influenza A): little to no signs of the cytopathic effects
- inhibitory impact on the level of constitutive gene expression ([1]; counter-screen assay, dose titration): no visible inhibitory impact
- tolerability in cellular model of toxicity [2]: well-tolerated
- inhibition of virus [3]: significantly inhibited
- tolerability in cellular model of toxicity [4]: well-tolerated
- concentrations with significant antiviral activity [5]: > 4 µM
- inhibition of influenza B (influenza B): inhibitable
- inhibition of virus [6]: significantly inhibited
- IC50 [7]: ~3 µM
- animals survived infection at day 7 post-infection ([8]; 1 mg/kg intravenously): 2/5
- animals survived infection at day 7 post-infection ([8]; 3.17 mg/kg intravenously): 3/5

Compound: COc1ccc(-c2c(C)nn3c(N4CCc5ccccc5C4)cc(C)nc23)cc1OC [A0550, 2-(3-(3,4-dimethoxyphenyl)-2,5-dimethylpyrazolo[1,5-a]pyrimidin-7-yl)-1,2,3,4-tetrahydroisoquinoline]
- observed toxicity or efficacy in either assay tested ([1]; antiviral and counterscreen assay): >50 µM (no observed toxicity or efficacy in either assay tested)
- IC50 [7]: > 50 µM

Compound: CCc1c(C)nc2cc(-c3ccc(OC)c(OC)c3)nn2c1NCCc1ccccc1C [A0439, 2-(3,4-dimethoxyphenyl)-6-ethyl-5-methyl-N-[2(2-methylphenyl)ethyl]pyrazolo[1,5-a]pyrimidin-7-amine]
- concentrations with significant antiviral activity [5]: > 7.5 µM
- IC50 [7]: ~5 µM
- toxicity in the reporter assay [9]: increased toxicity at higher doses due to precipitation
